Experimental data published in patent US10781184B2, “Substituted benzazinones as antibacterial compounds” (GlaxoSmithKline Intellectual Property Development Limited, priority 2015, dated 2020).
In brackets after ≈: the same amount, converted by molar mass.

How the values were obtained:
Experiment in all cases: Minimum Inhibitory Concentration Assay (broth microdilution, CLSI)
Assay type in all cases: cell-based
K. pneumoniae 1161486 = conditions: Klebsiella pneumoniae; strain 1161486, broth microdilution; read-out: K. pneumoniae 1161486 MIC
Experimental: (§1) Methods for dilution Antimicrobial Susceptibility TestS for Bacteria that Grow Aerobically; Approved Standard-Ninth Edition; M7-A9, Vol. 32 No. 2, Clinical and Laboratory Standards Institute, Wayne, Pa.; January 2012.
(§2) Performance Standards for Antimicrobial Susceptibility Testing; Twenty-Second Informational Supplement; M100-S22 Vol. 32 No. 3; Clinical and Laboratory Standards Institute, Wayne, Pa., January 2012.
(§3) Broth microdilution was performed in accordance with the CLSI recommended procedures for aerobic bacteria [CLSI, 2012].
(§4) Comparator compound stock solutions were prepared as recommended by CLSI [CLSI, 2012]. The stock solutions of novel GSK compounds were prepared at 512 mcg/mL by dissolving the compounds in dimethyl sulfoxide (DMSO) and diluting 1:10 with sterile water. The 512 mcg/mL stock was further serially diluted in the recommended broth media for the organisms being tested. Final DMSO concentration in test wells was less than 1%.
(§5) Microtitre plates were prepared using the Microlab STAR™ (Hamilton Co., Reno, Nev.) to add media (50 μL) and the Microlab AT Plus system (Hamilton Co., Reno, Nev.) to serially dilute the compounds (final concentration range 0.125 to 128 mcg/mL) and to add inoculum. A positive growth control well containing medium and the test isolate was included on each microtitre plate. Ten microliters of the test medium from the positive growth control well was plated to determine the purity of each test isolate. A microtitre mirror reader (Cooke Instruments, Ltd., England) was used to assist in determining the microdilution MIC endpoints. The MIC was determined as the lowest concentration of compound that inhibited visible growth of the organism.

P. aeruginosa PA01 = conditions: Pseudomonas aeruginosa; strain PA01, broth microdilution; read-out: P. aeruginosa PA01 MIC
Experimental: as §1, §2, §3, §4, §5

E. coli 7623 = conditions: Escherichia coli; strain 7623, broth microdilution; read-out: E. coli 7623 MIC
Experimental: as §1, §2, §3, §4, §5

| Compound | MIC (K. pneumoniae 1161486) | MIC (P. aeruginosa PA01) | MIC (E. coli 7623) |
| --- | --- | --- | --- |
| CN(C)N(C)Cc1ccc(-c2ccc3c(=O)n(CC[C@](C)(C(=O)NO)S(C)(=O)=O)ccc3c2)cc1 [Example 77, (2R)—N-hydroxy-2-methanesulfonyl-2-methyl-4-(1-oxo-6-{4-[(1,2,2-trimethylhydrazin-1-yl)methyl]phenyl}-1,2-dihydroisoquinolin-2-yl)butanamide] | 0.25 mg/L (≈ 0.499 µM) | 2 mg/L (≈ 4 µM) | 0.125 mg/L (≈ 0.25 µM) |
| C[C@@](CCn1cnc2cc(-c3ccc(CN4CCOCC4)cc3)ccc2c1=O)(C(=O)NO)S(C)(=O)=O [Example 35, (2R)—N-hydroxy-2-methanesulfonyl-2-methyl-4-(7-{4-[(morpholin-4-yl)methyl]phenyl}-4-oxo-3,4-dihydroquinazolin-3-yl)butanamide] | 0.5 mg/L (≈ 0.972 µM) | 1 mg/L (≈ 1.94 µM) | 0.125 mg/L (≈ 0.243 µM) |
| C[C@@](CCn1cnc2cc(-c3ccc(CN4CC(F)(F)C4)cc3F)ccc2c1=O)(C(=O)NO)S(C)(=O)=O [Example 40, (2R)-4-(7-{4-[(3,3-difluoroazetidin-1-yl)methyl]-2-fluorophenyl}-4-oxo-3,4-dihydroquinazolin-3-yl)-N-hydroxy-2-methanesulfonyl-2-methylbutanamide] | 0.5 mg/L (≈ 0.928 µM) | 4 mg/L (≈ 7.43 µM) | 0.5 mg/L (≈ 0.928 µM) |
| C[C@@](CCn1cc(F)c2cc(-c3ccccc3)ccc2c1=O)(C(=O)NO)S(C)(=O)=O [Example 84, (2R)-4-(4-fluoro-1-oxo-6-phenyl-1,2-dihydroisoquinolin-2-yl)-N-hydroxy-2-methanesulfonyl-2-methylbutanamide] | 0.25 mg/L (≈ 0.578 µM) | 4 mg/L (≈ 9.25 µM) | 0.5 mg/L (≈ 1.16 µM) |
| COCc1ccc(-c2ccc3c(=O)n(CC[C@](C)(C(=O)NO)S(C)(=O)=O)cnc3c2)cc1 [Example 47, (2R)—N-hydroxy-2-methanesulfonyl-4-{7-[4-(methoxymethyl)phenyl]-4-oxo-3,4-dihydroquinazolin-3-yl}-2-methylbutanamide] | 0.125 mg/L (≈ 0.272 µM) | 0.5 mg/L (≈ 1.09 µM) | 0.063 mg/L (≈ 0.137 µM) |
| Cc1ccc(-c2ccc3c(=O)n(CC[C@](C)(C(=O)NO)S(C)(=O)=O)ccc3c2)cc1 [Example 54, (2R)—N-hydroxy-2-methanesulfonyl-2-methyl-4-[6-(4-methylphenyl)-1-oxo-1,2-dihydroisoquinolin-2-yl]butanamide] | 0.5 mg/L (≈ 1.17 µM) | 1 mg/L (≈ 2.33 µM) | < 0.03 mg/L |
| CCOc1ccc(-c2ccc3c(=O)n(CC[C@](C)(C(=O)NO)S(C)(=O)=O)cc(F)c3c2)cn1 [Example 86, (2R)-4-[6-(6-ethoxypyridin-3-yl)-4-fluoro-1-oxo-1,2-dihydroisoquinolin-2-yl]-N-hydroxy-2-methanesulfonyl-2-methylbutanamide] | 0.25 mg/L (≈ 0.524 µM) | 16 mg/L (≈ 33.5 µM) | < 0.03 mg/L |
| C[C@@](CCn1cnc2cc(-c3ccc(CN4CCOCC4)cc3F)ccc2c1=O)(C(=O)NO)S(C)(=O)=O [Example 37, (2R)-4-(7-{2-fluoro-4-[(morpholin-4-yl)methyl]phenyl}-4-oxo-3,4-dihydroquinazolin-3-yl)-N-hydroxy-2-methanesulfonyl-2-methylbutanamide] | 0.5 mg/L (≈ 0.939 µM) | 2 mg/L (≈ 3.76 µM) | 0.063 mg/L (≈ 0.118 µM) |
| Cc1cnc(-c2ccc3c(=O)n(CC[C@](C)(C(=O)NO)S(C)(=O)=O)ccc3c2)s1 [Example 58, (2R)—N-hydroxy-2-methanesulfonyl-2-methyl-4-[6-(5-methyl-1,3-thiazol-2-yl)-1-oxo-1,2-dihydroisoquinolin-2-yl]butanamide] | 1 mg/L (≈ 2.3 µM) | 4 mg/L (≈ 9.18 µM) | 0.063 mg/L (≈ 0.145 µM) |
| COCCCN(C)Cc1ccc(-c2ccc3c(=O)n(CC[C@](C)(C(=O)NO)S(C)(=O)=O)ccc3c2)c(F)c1.Cl [Example 70, (2R)-4-[6-(2-fluoro-4-{[(3-methoxypropyl)(methyl)amino]methyl}phenyl)-1-oxo-1,2-dihydroisoquinolin-2-yl]-N-hydroxy-2-methanesulfonyl-2-methylbutanamide] | 0.25 mg/L | 2 mg/L | 0.125 mg/L |
| COC1CN(CCc2ccc(-c3cc4ncn(CC[C@](C)(C(=O)NO)S(C)(=O)=O)c(=O)c4cc3F)c(F)c2F)C1 [Example 24, (2R)-4-(7-{2,3-difluoro-4-[2-(3-methoxyazetidin-1-yl)ethyl]phenyl}-6-fluoro-4-oxo-3,4-dihydroquinazolin-3-yl)-N-hydroxy-2-methanesulfonyl-2-methylbutanamide] | 1 mg/L (≈ 1.72 µM) | 2 mg/L (≈ 3.43 µM) | 0.25 mg/L (≈ 0.429 µM) |
| C[C@@](CCn1cnc2cc(-c3ccc(CCN4CCOCC4)cc3F)ccc2c1=O)(C(=O)NO)S(C)(=O)=O [Example 43, (2R)-4-(7-{2-fluoro-4-[2-(morpholin-4-yl)ethyl]phenyl}-4-oxo-3,4-dihydroquinazolin-3-yl)-N-hydroxy-2-methanesulfonyl-2-methylbutanamide] | 0.5 mg/L (≈ 0.915 µM) | 2 mg/L (≈ 3.66 µM) | 0.25 mg/L (≈ 0.457 µM) |
| CON(C)Cc1ccc(-c2ccc3c(=O)n(CC[C@](C)(C(=O)NO)S(C)(=O)=O)cnc3c2)cc1 [Example 52, (2R)—N-hydroxy-2-methanesulfonyl-4-[7-(4-{[methoxy(methyl)amino]methyl}phenyl)-4-oxo-3,4-dihydroquinazolin-3-yl]-2-methylbutanamide] | 0.25 mg/L (≈ 0.512 µM) | 8 mg/L (≈ 16.4 µM) | 0.063 mg/L (≈ 0.129 µM) |
| CN(C)CC(=O)OCCc1ccc(-c2ccc3c(=O)n(CC[C@](C)(C(=O)NO)S(C)(=O)=O)ccc3c2)cc1 [Example 94, 2-(4-{2-[(3R)-3-(hydroxycarbamoyl)-3-methanesulfonyl-3-methylpropyl]-1-oxo-1,2-dihydroisoquinolin-6-yl}phenyl)ethyl 2-(dimethylamino)acetate] | 0.25 mg/L (≈ 0.46 µM) | 2 mg/L (≈ 3.68 µM) | 0.125 mg/L (≈ 0.23 µM) |

Other lines, results leading:

| MIC (K. pneumoniae 1161486) | MIC (P. aeruginosa PA01) | MIC (E. coli 7623) | Compound |
| --- | --- | --- | --- |
| 2 mg/L (≈ 3.98 µM) | 2 mg/L (≈ 3.98 µM) | 0.125 mg/L (≈ 0.249 µM) | C[C@@](CCn1cnc2cc(-c3ccc(CNC4CC4)cc3F)ccc2c1=O)(C(=O)NO)S(C)(=O)=O [Example 41, (2R)-4-(7-{4-[(cyclopropylamino)methyl]-2-fluorophenyl}-4-oxo-3,4-dihydroquinazolin-3-yl)-N-hydroxy-2-methanesulfonyl-2-methylbutanamide] |
| 0.5 mg/L (≈ 1.09 µM) | 8 mg/L (≈ 17.4 µM) | 0.125 mg/L (≈ 0.273 µM) | CN(C)c1ccc(-c2ccc3c(=O)n(CC[C@](C)(C(=O)NO)S(C)(=O)=O)ccc3c2)cn1 [Example 62, (2R)-4-{6-[6-(dimethylamino)pyridin-3-yl]-1-oxo-1,2-dihydroisoquinolin-2-yl}-N-hydroxy-2-methanesulfonyl-2-methylbutanamide] |
| 0.125 mg/L (≈ 0.279 µM) | 8 mg/L (≈ 17.9 µM) | ≤ 0.03 mg/L | Cc1ccc(-c2ccc3c(=O)n(CC[C@](C)(C(=O)NO)S(C)(=O)=O)cnc3c2)cc1F [Example 9, (R)-4-(7-(3-fluoro-4-methylphenyl)-4-oxoquinazolin-3(4H)-yl)-N-hydroxy-2-methyl-2-(methylsulfonyl)butanamide] |
| 0.5 mg/L (≈ 1.05 µM) | 4 mg/L (≈ 8.41 µM) | 0.125 mg/L (≈ 0.263 µM) | C[C@@](CCn1cnc2cc(-c3ccc4c(c3)COC4)c(F)cc2c1=O)(C(=O)NO)S(C)(=O)=O [Example 32, (2R)-4-[7-(1,3-dihydro-2-benzofuran-5-yl)-6-fluoro-4-oxo-3,4-dihydroquinazolin-3-yl]-N-hydroxy-2-methanesulfonyl-2-methylbutanamide] |
| 0.063 mg/L (≈ 0.141 µM) | 0.5 mg/L (≈ 1.12 µM) | < 0.03 mg/L | Cc1ccc(-c2cc3ncn(CC[C@](C)(C(=O)NO)S(C)(=O)=O)c(=O)c3cc2F)cc1 [Example 15, (2R)-4-[6-fluoro-7-(4-methylphenyl)-4-oxo-3,4-dihydroquinazolin-3-yl]-N-hydroxy-2-methanesulfonyl-2-methylbutanamide] |
| 0.25 mg/L (≈ 0.554 µM) | 2 mg/L (≈ 4.43 µM) | 0.06 mg/L (≈ 0.133 µM) | C[C@@](CCn1cnc2cc(-c3cc(F)ccc3F)ccc2c1=O)(C(=O)NO)S(C)(=O)=O [Example 7, (R)-4-(7-(2,5-difluorophenyl)-4-oxoquinazolin-3(4H)-yl)-N-hydroxy-2-methyl-2-(methylsulfonyl)butanamide] |
| 0.5 mg/L (≈ 0.987 µM) | 2 mg/L (≈ 3.95 µM) | 0.125 mg/L (≈ 0.247 µM) | CCONCc1ccc(-c2ccc3c(=O)n(CC[C@](C)(C(=O)NO)S(C)(=O)=O)cnc3c2)c(F)c1 [Example 51, (2R)-4-(7-{4-[(ethoxyamino)methyl]-2-fluorophenyl}-4-oxo-3,4-dihydroquinazolin-3-yl)-N-hydroxy-2-methanesulfonyl-2-methylbutanamide] |
| 1 mg/L (≈ 2.1 µM) | 32 mg/L (≈ 67.2 µM) | 0.063 mg/L (≈ 0.132 µM) | CN(C)c1ccc(-c2ccc3c(=O)n(CC[C@](C)(C(=O)NO)S(C)(=O)=O)cc(F)c3c2)cn1 [Example 90, (2R)-4-{6-[6-(dimethylamino)pyridin-3-yl]-4-fluoro-1-oxo-1,2-dihydroisoquinolin-2-yl}-N-hydroxy-2-methanesulfonyl-2-methylbutanamide] |
| 0.5 mg/L (≈ 1.05 µM) | 8 mg/L (≈ 16.8 µM) | < 0.03 mg/L | CN(C)c1ccc(-c2cc3ncn(CC[C@](C)(C(=O)NO)S(C)(=O)=O)c(=O)c3cc2F)cn1 [Example 33, (2R)-4-{7-[6-(dimethylamino)pyridin-3-yl]-6-fluoro-4-oxo-3,4-dihydroquinazolin-3-yl}-N-hydroxy-2-methanesulfonyl-2-methylbutanamide] |
